According to the supplement of paper PMC7017272:
± gives the standard deviation of the averaged measurements.

Columns and labels:
Conditions in all cases: treatment time: 3 days
[1] = tested on: UT-SCC-40; test: maximal % inhibition of viability relative to DMSO; higher = stronger effect
Method: (§1)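 HNSCC cell lines (500 cells/well, 384-well) were cultured on plastic, on top of (2D) or embedded (3D) in Matrigel or human leiomyoma matrix Myogel (500 ug/mL; Myogel 3D mixed with rat collagen I). Cells were treated for 3 days with 5 ten-fold concentrations of each drug, and viability was read by CellTiter-Glo. Viability was normalised to DMSO and benzethonium chloride controls and fitted with the FIMM DSRT pipeline to give IC50 (nM), maximal % inhibition and DSS. Suffixes _1/_2/_3 are replicates. Only inhibition-mode (IC50) fits are kept.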

[2] = tested on: UT-SCC-81; test: as above
Method: as §1

[3] = tested on: UT-SCC-14; test: as above
Method: as §1

[4] = tested on: UT-SCC-42A; test: as above
Method: as §1

[5] = tested on: UT-SCC-8; test: as above
Method: as §1

[6] = tested on: UT-SCC-106A; test: as above
Method: as §1

[7] = tested on: UT-SCC-42B; test: as above
Method: as §1

[8] = tested on: UT-SCC-24B; test: as above
Method: as §1

[9] = tested on: UT-SCC-44; test: as above
Method: as §1

[10] = tested on: UT-SCC-73; test: as above
Method: as §1

[11] = tested on: UT-SCC-28; test: as above
Method: as §1

[12] = tested on: UT-SCC-24A; test: drug sensitivity score (DSS); higher = more sensitive
Method: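 HNSCC cell lines (500 cells/well, 384-well) were cultured on plastic, on top of (2D) or embedded (3D) in Matrigel or human leiomyoma matrix Myogel (500 ug/mL; Myogel 3D mixed with rat collagen I). Cells were treated for 3 days with 5 ten-fold concentrations of each drug, and viability was read by CellTiter-Glo. Suffixes _1/_2/_3 on drug names are replicates.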

[13] = tested on: UT-SCC-14; test: drug sensitivity score (DSS); higher = more sensitive; extreme values may be limits of the assay
In short: (§2)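 Using 384-well plates, 500 cells/well of HPV-negative HNSCC cell lines were grown on plastic, on 500 µg/mL Matrigel or Myogel coatings, or embedded in Matrigel or Myogel with rat collagen I. They were treated with compounds at five 10-fold concentrations for 3 days, and luminescence from CellTiter-Glo 2.0 was normalised to vehicle (0.1% DMSO) and cell-killing control wells. IC50, maximal inhibition and drug sensitivity score were derived from percent-inhibition dose–response curves in the FIMM pipeline.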

[14] = tested on: UT-SCC-42A; test: as above
In short: as §2

[15] = tested on: UT-SCC-106A; test: as above
In short: as §2

[16] = tested on: UT-SCC-42B; test: as above
In short: as §2

[17] = tested on: UT-SCC-24A; test: relative IC50 (midpoint of the fitted curve; maximal inhibition may be below 50%); higher = less potent
Method: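 HNSCC cell lines (500 cells/well, 384-well) were cultured on plastic, on top of (2D) or embedded (3D) in Matrigel or human leiomyoma matrix Myogel (500 ug/mL; Myogel 3D mixed with rat collagen I). Cells were treated for 3 days with 5 ten-fold concentrations of each drug, and viability was read by CellTiter-Glo. Viability was normalised to DMSO (0% inhibition) and 100 uM benzethonium chloride (100% inhibition) controls and fitted with the FIMM DSRT pipeline to give IC50 (nM), maximal % inhibition and the drug sensitivity score (DSS). Suffixes _1/_2/_3 on drug names are replicates.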

[18] = culture condition: embedded in Matrigel
[19] = culture condition: embedded in Myogel + collagen I
[20] = culture condition: on top of Matrigel
[21] = culture condition: on top of Myogel
[22] = culture condition: plastic 2D (no matrix)

In the case of `O=C(NC[C@H](O)CO)c1ccncc1Nc1ccc(I)cc1F` [Pimasertib], the “maximal % inhibition of viability” value [1, 18] is reported as 80.6 ± 0.3%, the “maximal % inhibition of viability” value [1, 19] is reported as 72.8 ± 3.5% and the “maximal % inhibition of viability” value [1, 20] is reported as 77.77 ± 0.35%. The “maximal % inhibition of viability” value [1, 21] was 64.6 ± 2.5%, the “maximal % inhibition of viability” value [1, 22] was 64.5 ± 4.9% and the “maximal % inhibition of viability” value [2, 18] was 88.7 ± 1.7%. The “maximal % inhibition of viability” value [2, 19] was 68.2 ± 0.36%, the “maximal % inhibition of viability” value [2, 20] was 86.1 ± 0.46% and the “maximal % inhibition of viability” value [2, 21] was 71.2 ± 2.8%. For the same compound, the “maximal % inhibition of viability” value [2, 22] was 78.6 ± 1.5%, the “maximal % inhibition of viability” value [3, 18] was 64.8 ± 6.5% and the “maximal % inhibition of viability” value [3, 19] was 59.6 ± 4.5%. For the same compound, the “maximal % inhibition of viability” value [3, 20] was 59.6 ± 6.8%, the “maximal % inhibition of viability” value [3, 21] was 54.7 ± 9.3% and the “maximal % inhibition of viability” value [3, 22] was 57.1 ± 10%. The “maximal % inhibition of viability” value [4, 18] was 61.3 ± 7.5%, the “maximal % inhibition of viability” value [4, 19] was 51.3 ± 6.6% and the “maximal % inhibition of viability” value [4, 20] was 63.2 ± 0.95%. For the same compound, the “maximal % inhibition of viability” value [4, 21] was 55.7 ± 5.7%, the “maximal % inhibition of viability” value [4, 22] was 60.4 ± 7.4% and the “maximal % inhibition of viability” value [5, 18] was 93.8 ± 1.2%. For the same compound, the “maximal % inhibition of viability” value [5, 19] was 82.5 ± 1.6%, the “maximal % inhibition of viability” value [5, 20] was 90.4 ± 0.76% and the “maximal % inhibition of viability” value [5, 21] was 85.8 ± 2.3%. The “maximal % inhibition of viability” value [5, 22] was 90.3 ± 2.2%, the “maximal % inhibition of viability” value [6, 18] was 53.5 ± 4.2% and the “maximal % inhibition of viability” value [6, 19] was 43.4 ± 1.8%. For the same compound, the “maximal % inhibition of viability” value [6, 20] was 63.2 ± 0.68%, the “maximal % inhibition of viability” value [6, 21] was 54.1 ± 3.3% and the “maximal % inhibition of viability” value [6, 22] was 70 ± 1.2%. The “maximal % inhibition of viability” value [7, 18] was 70.2 ± 1.9%, the “maximal % inhibition of viability” value [7, 20] was 59.9 ± 2.8% and the “maximal % inhibition of viability” value [7, 21] was 53 ± 2.7%. For the same compound, the “maximal % inhibition of viability” value [7, 22] was 49.2 ± 3.8%, the “maximal % inhibition of viability” value [8, 18] was 72.7 ± 1.5% and the “maximal % inhibition of viability” value [8, 19] was 79.1 ± 8.2%. The “maximal % inhibition of viability” value [8, 20] was 75.8 ± 2.7%, the “maximal % inhibition of viability” value [8, 21] was 67.9 ± 2.7% and the “maximal % inhibition of viability” value [8, 22] was 88.9 ± 1.2%. For the same compound, the “maximal % inhibition of viability” value [9, 18] was 93.77 ± 0.93%, the “maximal % inhibition of viability” value [9, 19] was 66.6 ± 8.2% and the “maximal % inhibition of viability” value [9, 20] was 81.8 ± 2.8%. The “maximal % inhibition of viability” value [9, 21] was 66.3 ± 3.5%, the “maximal % inhibition of viability” value [9, 22] was 69.6 ± 7.2% and the “maximal % inhibition of viability” value [10, 18] was 86.2 ± 1.2%. For the same compound, the “maximal % inhibition of viability” value [10, 19] was 78.7 ± 13%, the “maximal % inhibition of viability” value [10, 20] was 81.93 ± 0.55% and the “maximal % inhibition of viability” value [10, 21] was 76.4 ± 1.3%. The “maximal % inhibition of viability” value [10, 22] was 79.6 ± 1.4%, the “maximal % inhibition of viability” value [11, 18] was 54.1 ± 6.8% and the “maximal % inhibition of viability” value [11, 19] was 51 ± 6.3%. The “maximal % inhibition of viability” value [11, 20] was 54.8 ± 1.5%, the “maximal % inhibition of viability” value [11, 22] was 32.7 ± 3.9% and the drug sensitivity score [12, 18] was 34.8 ± 1.2 DSS. For the same compound, the drug sensitivity score [12, 19] was 18.5 ± 1.2 DSS, the drug sensitivity score [12, 20] was 31.6 ± 0.84 DSS and the drug sensitivity score [12, 21] was 15 ± 1.6 DSS. It also gave a drug sensitivity score [12, 22] of 28.3 ± 1.6 DSS, a drug sensitivity score [13, 18] of 13.9 ± 3.4 DSS and a drug sensitivity score [13, 19] of 12.2 ± 5.1 DSS. It also gave a drug sensitivity score [13, 20] of 10.6 ± 2.3 DSS, a drug sensitivity score [13, 21] of 8.27 ± 2.3 DSS and a drug sensitivity score [13, 22] of 8.03 ± 3.4 DSS. The drug sensitivity score [14, 18] was 20.9 ± 0.5 DSS, the drug sensitivity score [14, 19] was 9.43 ± 1.3 DSS and the drug sensitivity score [14, 20] was 20.5 ± 1.6 DSS. The drug sensitivity score [14, 21] was 12.8 ± 0.46 DSS, the drug sensitivity score [14, 22] was 16.33 ± 0.12 DSS and the drug sensitivity score [15, 18] was 19.4 ± 0.44 DSS. For the same compound, the drug sensitivity score [15, 19] was 5.6 ± 0.27 DSS, the drug sensitivity score [15, 20] was 22.2 ± 0.52 DSS and the drug sensitivity score [15, 21] was 6.27 ± 0.74 DSS. The drug sensitivity score [15, 22] was 22.2 ± 0.74 DSS, the drug sensitivity score [16, 18] was 24.5 ± 2.7 DSS and the drug sensitivity score [16, 20] was 16.2 ± 1 DSS. For the same compound, the drug sensitivity score [16, 21] was 9.77 ± 0.96 DSS, the drug sensitivity score [16, 22] was 10.1 ± 0.55 DSS and the “relative IC50” value [17, 18] was 4.15 nM. The “relative IC50” value [17, 19] was 77 nM, the “relative IC50” value [17, 20] was 6.19 nM and the “relative IC50” value [17, 21] was 105 nM. For the same compound, the “relative IC50” value [17, 22] was 10.2 nM.
